Experimental data reported in US6054556A, “Melanocortin receptor antagonists and agonists” (The Arizona Board of Regents on Behalf of the University of …, priority 1997, dated 2000).
Entries after “also recorded” stand apart in the source; their conditions may differ. Where a SMILES comes first, the peptide text is derived from it. Bridges are numbered along the chain shown (N, C = ends). [ ]: non-standard residue; d: D form. 2Nal = N[C@@H](Cc1ccc2ccccc2c1)C(=O)O; d2Nal = N[C@H](Cc1ccc2ccccc2c1)C(=O)O; Nle = CCCC[C@H](N)C(=O)O

Experiments:
Format in all cases: cell-based
[1] = tested on: frog (Rana pipiens) skin; test: Frog skin bioassay (skin darkening, photoreflectance); conditions: for Frog Skin: agonist/antagonist activity: melanin dispersion vs α-MSH
Procedure: Bioassays were performed on frog (Rana pipiens) skin according to published protocols [see J. Med. Chem. 30:2126 (1987) and Gen. Comp. Endocrinol. 55:104 (1984)]. Briefly, in these assays the darkening of skin due to dispersion of melanin granules within the melanocytes in response to the melanotropin peptides according to the present invention is measured by photoreflectance methods. The agonist potency of each peptide was determined from the dose response curves comparing the skin darkening with that produced by the native hormone, α-MSH. Prolongation of the biological response was measured by continued monitoring of the melanosome dispersion for up to 3 hours following removal of the peptide in the bathing solution through washing of the skins. The antagonistic activity profile was measured by pre-incubating the skins for 1 hour in various concentrations of the antagonist. After pre-incubation, a known concentration of α-MSH was added and its melanotropic activity determined. Dose-response curves generated for α-MSH in this manner were used to determine the pA2 values (representing the -log10 of the average molar concentration of the antagonist that will reduce the response of α-MSH (agonist) from 2X units to X units) [see Br. J. Pharmacol. 2:189 (1947)].

[2] = target: T1, hMC3-R (Homo sapiens, UniProt P41968); test: cAMP-dependent pCRE/β-galactosidase reporter assay in Clonal 293 cells expressing human MC3-R; conditions: for hMC3-R: agonist/antagonist activity: cAMP/β-galactosidase
T1 construct: expressed in transfected cells
T1 sequence (P41968 whole entry): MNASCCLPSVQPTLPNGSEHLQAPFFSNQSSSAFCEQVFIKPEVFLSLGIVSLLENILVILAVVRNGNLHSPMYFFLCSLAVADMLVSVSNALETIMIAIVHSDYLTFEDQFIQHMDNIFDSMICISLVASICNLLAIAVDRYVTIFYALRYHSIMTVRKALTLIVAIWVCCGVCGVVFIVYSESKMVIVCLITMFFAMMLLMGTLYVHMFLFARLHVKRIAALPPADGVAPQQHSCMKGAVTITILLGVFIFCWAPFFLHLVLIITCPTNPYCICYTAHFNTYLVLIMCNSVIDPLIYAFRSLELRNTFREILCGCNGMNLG
Procedure: (§1) The peptides according to the present invention were assayed for agonist and antagonist activity using cloned hMC1, mMC1-R, hMC3-R, hMC4-R and mMC5-R transfected into the stable cell line Clonal 293. Transduction was measured by its affect on cAMP production using the following method.
(§2) Clonal 293 cell lines expressing the human MSH receptor, human MC3-R, human MC4-R, and mouse MC5-R were transfected with a pCRE/β-galactosidase construct using a CaPO4 method [see Mol. Cell. Biol. 7:2745 (1987)]. 4 μg of pCRE/β-galactosidase DNA was used for transfection of a 10 cm dish of cells. After 15 to 24 hours post-transfection, cells were split into 96-well plates with 20,000 to 30,000 cells per well, and incubated at 37° C. in a 5% CO2 incubator until 48 hours post-transfection.Cells were then stimulated with different peptides diluted in stimulation medium (Dulbecco's modified Eagle's medium containing 0.1 mg/ml bovine serum albumin and 0.1 mM isobutylmethylxanthine) for 6 hours. Agonist activity was measured by stimulating cells with various concentrations of peptide, and antagonist activity was measured by stimulating MC3 and MC4 receptor cell lines with […]. After stimulation, cells were lysed in 50 μl lysis buffer (250 mM Tris-HCl, pH 8.0, 0.1% Triton X-100), frozen and thawed, and then assayed for b-galactosidase activity.

[3] = target: T2, hMC4-R (Homo sapiens, UniProt P32245); test: cAMP-dependent pCRE/β-galactosidase reporter assay in Clonal 293 cells expressing human MC4-R; conditions: for hMC4-R: agonist/antagonist activity: cAMP/β-galactosidase
T2 construct: expressed in transfected cells
T2 sequence (P32245 whole entry): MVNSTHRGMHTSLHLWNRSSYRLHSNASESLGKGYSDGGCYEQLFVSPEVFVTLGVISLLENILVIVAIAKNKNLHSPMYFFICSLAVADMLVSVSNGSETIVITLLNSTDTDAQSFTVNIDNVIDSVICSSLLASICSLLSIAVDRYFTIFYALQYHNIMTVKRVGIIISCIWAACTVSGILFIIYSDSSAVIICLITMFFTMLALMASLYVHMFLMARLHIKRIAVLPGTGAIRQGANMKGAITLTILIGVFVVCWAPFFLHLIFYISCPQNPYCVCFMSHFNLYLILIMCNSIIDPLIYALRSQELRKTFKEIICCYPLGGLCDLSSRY
Procedure: as §1, §2

[4] = target: T3, mMC5-R (Mus musculus, UniProt P41149); test: cAMP-dependent pCRE/β-galactosidase reporter assay in Clonal 293 cells expressing mouse MC5-R; conditions: for mMC5-R: agonist/antagonist activity: cAMP/β-galactosidase
T3 construct: expressed in transfected cells
T3 sequence (P41149 whole entry): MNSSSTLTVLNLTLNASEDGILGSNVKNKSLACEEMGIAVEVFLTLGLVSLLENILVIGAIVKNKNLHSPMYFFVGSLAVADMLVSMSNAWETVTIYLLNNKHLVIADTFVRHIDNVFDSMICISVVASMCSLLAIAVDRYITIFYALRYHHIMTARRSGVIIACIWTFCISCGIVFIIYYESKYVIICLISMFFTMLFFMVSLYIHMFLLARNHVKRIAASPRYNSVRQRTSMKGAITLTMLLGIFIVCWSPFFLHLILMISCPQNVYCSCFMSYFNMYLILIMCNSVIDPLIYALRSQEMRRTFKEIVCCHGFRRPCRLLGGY
Procedure: Transduction was measured by its affect on cAMP production using the following method.
as §2, with “4” for “Clonal 293 cell lines expressing the human MSH receptor, human MC3-R, human MC4-R, and mouse MC5-R were transfected with a pCRE/β-galactosidase construct using a CaPO4 method [see Mol. Cell. Biol. 7:2745 (1987)]. 4”

Row | Compound | Frog Skin: agonist/antagonist activity [1] | Frog Skin: reversibility of antagonism [1] | hMC3-R: potency range [2] | hMC3-R: agonist/antagonist activity [2] | hMC4-R: potency range [3] | hMC4-R: agonist/antagonist activity [3] | mMC5-R: potency range [4] | mMC5-R: agonist/antagonist activity [4]
1 | CCCC[C@H](NC(C)=O)C(=O)N[C@H]1CC(=O)NCCCC[C@@H](C(N)=O)NC(=O)[C@H](Cc2ccc3ccccc3c2)NC(=O)[C@H](CCCNC(=N)N)NC(=O)[C@@H](Cc2ccc3ccccc3c2)NC(=O)[C@H](Cc2c[nH]cn2)NC1=O [Compound 11, Ac-Nle-c[Asp-His-D-Nal(2')-Arg-Nal(2')-Lys]-NH2] | Antagonist -- Partial |  |  |  |  |  |  | 
2 | CCCC[C@H](NC(C)=O)C(=O)N[C@H]1CC(=O)NCCCC[C@@H](C(N)=O)NC(=O)[C@H](Cc2ccc3ccccc3c2)NC(=O)[C@H](CCCNC(=N)N)NC(=O)[C@@H](Cc2ccc3ccccc3c2)NC(=O)[C@H](Cc2c[nH]c3ccccc23)NC1=O [Compound 1, Ac-Nle-c[Asp-Trp-D-Nal(2')-Arg-Nal(2')-Lys]-NH2] (Ac-[Nle]DW[d2Nal]R[2Nal]K-NH2; lactam 2-7) | Antagonist | Irreversible |  |  |  |  |  | 
3 | CCCC[C@H](NC(C)=O)C(=O)N[C@H]1CC(=O)NCCCC[C@@H](C(N)=O)NC(=O)[C@@H](Cc2ccc3ccccc3c2)NC(=O)[C@H](CCCNC(=N)N)NC(=O)[C@@H](Cc2ccc3ccccc3c2)NC(=O)[C@H](Cc2c[nH]cn2)NC1=O [Compound 16, Ac-Nle-c[Asp-His-D-Nal(2')-Arg-D-Nal(2')-Lys]-NH2] | Agonism |  |  |  |  |  |  | 
4 | Ac-Nle-c[Asp-His(3-Me)-D-Nal(2')-Arg-Nal(2')-Lys]-NH2 [Compound 6] | Antagonist | Irreversible | nM range | Antagonist | nM range | Antagonist | pM range | Antagonist
5 | CCCC[C@H](NC(C)=O)C(=O)N[C@H]1CC(=O)NCCCC[C@@H](C(N)=O)NC(=O)[C@H](Cc2ccc3ccccc3c2)NC(=O)[C@H](CCCNC(=N)N)NC(=O)[C@@H](Cc2ccccc2)NC(=O)[C@H](Cc2c[nH]c3ccccc23)NC1=O [Compound 10, Ac-Nle-c[Asp-Trp-D-Phe-Arg-Nal(2')-Lys]-NH2] (Ac-[Nle]DW[dF]R[2Nal]K-NH2; lactam 2-7) | potent agonist; also recorded: Full Agonist |  |  |  |  |  |  | 
6 | Ac-Nle-c[Asp-His(1-Me)-D-Nal(2')-Arg-Nal(2')-Lys]-NH2 [Compound 5] | Antagonist | Irreversible | nM range | Antagonist | nM range | Antagonist | pM range | Antagonist
7 | Ac-Nle-c[Asp-His(1-Me)-D-Nal(2')-Arg-Trp-Lys]-NH2 [Compound 2] | Antagonist | Irreversible | nM range | Antagonist | nM range | Antagonist | pM range | Antagonist
8 | CCCC[C@H](NC(C)=O)C(=O)N[C@H]1CC(=O)NCCCC[C@@H](C(N)=O)NC(=O)[C@H](Cc2c[nH]c3ccccc23)NC(=O)[C@H](CCCC)NC(=O)[C@@H](Cc2ccc3ccccc3c2)NC(=O)[C@H](Cc2c[nH]cn2)NC1=O [Compound 13, Ac-Nle-c[Asp-His-D-Nal(2')-Nle-Trp-Lys]-NH2] | Agonist |  |  |  |  |  |  | 
9 | CCCC[C@H](NC(C)=O)C(=O)N[C@H]1CC(=O)NCCCC[C@@H](C(N)=O)NC(=O)[C@H](Cc2c[nH]c3ccccc23)NC(=O)[C@H](CCCC)NC(=O)[C@@H](Cc2ccc3ccccc3c2)NC(=O)[C@H](Cc2c[nH]c3ccccc23)NC1=O [Compound 14, Ac-Nle-c[Asp-Trp-D-Nal(2')-Nle-Trp-Lys]-NH2] (Ac-[Nle]DW[d2Nal][Nle]WK-NH2; lactam 2-7) | Antagonist |  |  |  |  |  |  | 
10 | Ac-Nle-c[Asp-His(3-Me)-D-Nal(2')-Arg-Trp-Lys]-NH2 [Compound 3] | Antagonist | Irreversible | nM range | Antagonist | nM range | Antagonist | pM range | Antagonist
11 | CCCC[C@H](NC(C)=O)C(=O)N[C@H]1CC(=O)NCCCC[C@@H](C(N)=O)NC(=O)[C@H](Cc2c[nH]c3ccccc23)NC(=O)[C@H](Cc2ccc3ccccc3c2)NC(=O)[C@@H](Cc2ccccc2)NC(=O)[C@H](Cc2c[nH]cn2)NC1=O [Compound 15, Ac-Nle-c[Asp-His-D-Phe-Nal(2')-Trp-Lys]-NH2] | Agonism |  |  |  |  |  |  | 
